The text below walks through data of patent publication US5244923A, “Use of 2-(phenoxypropanolamino) ethoxphenoxy-acetic acid and its derivatives to inhibit gastrointestinal motility” (Imperial Chemical Industries PLC, priority 1990, dated 1993).

This test concerns the target "atypical" β-adrenoceptors (Cavia porcellus, UniProt Q3HNP5). The test is described as follows: Relaxation of histamine-contracted guinea-pig ileum. The conditions noted are these: histamine 0.5 μM contraction, propranolol 5 μM, atropine 1 μM, phentolamine 3 μM present, read-out: EC30 (concentration of agonist producing a relaxation equivalent to 30% histamine inhibition).

Where a name gives a salt, the structure may show the parent alone.

Chain of "atypical" β-adrenoceptors (Q3HNP5 1-379): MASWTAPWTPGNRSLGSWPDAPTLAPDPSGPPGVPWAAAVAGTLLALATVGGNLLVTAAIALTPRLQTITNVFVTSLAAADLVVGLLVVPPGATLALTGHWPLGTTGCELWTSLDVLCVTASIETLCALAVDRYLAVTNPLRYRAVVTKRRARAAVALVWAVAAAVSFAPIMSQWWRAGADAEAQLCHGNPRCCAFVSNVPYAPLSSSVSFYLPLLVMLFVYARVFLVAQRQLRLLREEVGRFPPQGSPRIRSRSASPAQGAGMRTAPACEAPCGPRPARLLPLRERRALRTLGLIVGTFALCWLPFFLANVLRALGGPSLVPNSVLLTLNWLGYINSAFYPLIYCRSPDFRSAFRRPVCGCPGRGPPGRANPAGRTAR

With `COCCNC(=O)COc1ccc(OCCNC[C@H](O)COc2ccccc2)cc1` [(S)-4-[2-(2-hydroxy-3-phenoxypropylamino)ethoxy]-N-(2-methoxyethyl)phenoxyacetamide hydrochloride], the EC30 was 940 ± 260 nM.
